What all share (test): Kinase profile (33P ATP filter binding)
Holding throughout (assay type): biochemical

In one assay the target is SYK (Homo sapiens, UniProt P43405). How it is done: (§1) The compounds were diluted to the appropriate concentration. The compounds were added to a “mother plate” consisting of samples, controls, and blanks. These serve as the source for “daughter plates” which are stored at −20 °C until assay initiation. Protein Kinases: Enzyme/Substrate mixture was added to the compound, and the compounds were incubated for five minutes at room temperature (RT). ^33P ATP was added to the compounds to initiate the assay. Orthophosphoric acid was added to the compounds to halt the assay. Assay components were harvested onto P81 filter plates, filter plates were air-dried, scintillation fluid was added to plates, and counts were read on a Topcount NXT. A mean percentage activity was calculated.

In the next assay the target is TIE2 (Homo sapiens, UniProt Q02763). As to conditions: read-out: Remaining protein kinase activity. How it is done:
as §1

The target in the next assay is PAK4 (Homo sapiens, UniProt O96013). The note with it: read-out: Remaining protein kinase activity. Here is the method: as §1
A further assay concerns the target T1, PINK (Tribolium castaneum, UniProt D6WMX4).
T1 sequence (D6WMX4 1-570): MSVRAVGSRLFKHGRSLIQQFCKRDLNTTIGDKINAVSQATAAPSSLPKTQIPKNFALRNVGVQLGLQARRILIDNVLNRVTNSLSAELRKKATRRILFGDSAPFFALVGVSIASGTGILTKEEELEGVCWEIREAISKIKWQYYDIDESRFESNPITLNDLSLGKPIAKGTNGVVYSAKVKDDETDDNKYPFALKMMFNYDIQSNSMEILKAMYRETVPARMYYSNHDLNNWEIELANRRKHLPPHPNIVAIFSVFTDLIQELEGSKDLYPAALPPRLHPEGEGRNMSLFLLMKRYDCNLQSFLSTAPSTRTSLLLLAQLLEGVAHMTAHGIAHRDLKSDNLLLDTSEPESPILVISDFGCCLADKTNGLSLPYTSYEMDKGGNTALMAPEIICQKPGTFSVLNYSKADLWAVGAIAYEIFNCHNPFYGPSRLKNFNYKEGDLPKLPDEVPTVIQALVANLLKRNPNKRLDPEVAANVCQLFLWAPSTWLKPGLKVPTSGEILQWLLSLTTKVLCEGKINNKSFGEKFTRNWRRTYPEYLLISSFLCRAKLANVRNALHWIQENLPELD
The note with it: read-out: Remaining protein kinase activity. Here is the method:
as §1

Another assay has as its target MLK1 (Homo sapiens, UniProt P80192). The note with it: read-out: Remaining protein kinase activity. Here is the method:
as §1

The next assay addresses T2, EPH-B1 (Homo sapiens, UniProt P54762).
T2 sequence (P54762 18-984): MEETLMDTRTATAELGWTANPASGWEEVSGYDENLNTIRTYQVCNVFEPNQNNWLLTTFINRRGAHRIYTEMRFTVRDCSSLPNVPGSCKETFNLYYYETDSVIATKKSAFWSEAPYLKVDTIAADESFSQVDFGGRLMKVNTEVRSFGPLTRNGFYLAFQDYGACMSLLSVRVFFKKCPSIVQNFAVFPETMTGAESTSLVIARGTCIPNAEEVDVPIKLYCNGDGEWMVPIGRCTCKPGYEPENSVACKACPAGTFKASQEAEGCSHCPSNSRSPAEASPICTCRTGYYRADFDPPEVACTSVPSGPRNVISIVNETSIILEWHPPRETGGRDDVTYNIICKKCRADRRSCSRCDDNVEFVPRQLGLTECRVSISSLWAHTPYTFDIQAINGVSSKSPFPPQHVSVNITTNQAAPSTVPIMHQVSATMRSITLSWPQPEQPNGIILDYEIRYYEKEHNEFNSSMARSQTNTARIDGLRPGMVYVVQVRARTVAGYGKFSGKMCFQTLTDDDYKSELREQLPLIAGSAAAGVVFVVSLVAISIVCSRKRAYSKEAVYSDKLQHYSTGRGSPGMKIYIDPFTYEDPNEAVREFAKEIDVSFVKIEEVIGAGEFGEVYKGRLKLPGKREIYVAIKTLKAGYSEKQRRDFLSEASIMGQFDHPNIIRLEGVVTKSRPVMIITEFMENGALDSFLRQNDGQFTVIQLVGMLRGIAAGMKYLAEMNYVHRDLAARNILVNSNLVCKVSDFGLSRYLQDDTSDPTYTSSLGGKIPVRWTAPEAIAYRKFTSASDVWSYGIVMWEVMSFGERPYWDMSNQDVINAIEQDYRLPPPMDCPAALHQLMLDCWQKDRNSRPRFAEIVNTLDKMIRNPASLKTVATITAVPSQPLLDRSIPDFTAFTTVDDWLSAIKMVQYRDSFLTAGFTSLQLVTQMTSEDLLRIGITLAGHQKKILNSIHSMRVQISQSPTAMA
The note with it: read-out: Remaining protein kinase activity. Here is the method: as §1

The next assay addresses T3, TSSK1 (Homo sapiens, UniProt Q9BXA7).
T3 sequence (Q9BXA7 1-367): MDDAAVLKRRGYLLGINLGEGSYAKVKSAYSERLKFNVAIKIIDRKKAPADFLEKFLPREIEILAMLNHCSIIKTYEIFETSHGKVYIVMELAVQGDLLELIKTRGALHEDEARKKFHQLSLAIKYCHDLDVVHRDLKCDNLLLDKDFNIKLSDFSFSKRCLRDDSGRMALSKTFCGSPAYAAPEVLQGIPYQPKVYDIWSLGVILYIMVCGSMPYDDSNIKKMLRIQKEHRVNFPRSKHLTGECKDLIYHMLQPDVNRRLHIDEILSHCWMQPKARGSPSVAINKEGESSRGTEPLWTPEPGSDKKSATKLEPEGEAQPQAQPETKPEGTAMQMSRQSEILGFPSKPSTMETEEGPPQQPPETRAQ
As to conditions: read-out: Remaining protein kinase activity. Here is the method:
as §1

Read-outs that look alike come from different tables or passages of the source.

TIE2, sequence (Q02763 23-1124): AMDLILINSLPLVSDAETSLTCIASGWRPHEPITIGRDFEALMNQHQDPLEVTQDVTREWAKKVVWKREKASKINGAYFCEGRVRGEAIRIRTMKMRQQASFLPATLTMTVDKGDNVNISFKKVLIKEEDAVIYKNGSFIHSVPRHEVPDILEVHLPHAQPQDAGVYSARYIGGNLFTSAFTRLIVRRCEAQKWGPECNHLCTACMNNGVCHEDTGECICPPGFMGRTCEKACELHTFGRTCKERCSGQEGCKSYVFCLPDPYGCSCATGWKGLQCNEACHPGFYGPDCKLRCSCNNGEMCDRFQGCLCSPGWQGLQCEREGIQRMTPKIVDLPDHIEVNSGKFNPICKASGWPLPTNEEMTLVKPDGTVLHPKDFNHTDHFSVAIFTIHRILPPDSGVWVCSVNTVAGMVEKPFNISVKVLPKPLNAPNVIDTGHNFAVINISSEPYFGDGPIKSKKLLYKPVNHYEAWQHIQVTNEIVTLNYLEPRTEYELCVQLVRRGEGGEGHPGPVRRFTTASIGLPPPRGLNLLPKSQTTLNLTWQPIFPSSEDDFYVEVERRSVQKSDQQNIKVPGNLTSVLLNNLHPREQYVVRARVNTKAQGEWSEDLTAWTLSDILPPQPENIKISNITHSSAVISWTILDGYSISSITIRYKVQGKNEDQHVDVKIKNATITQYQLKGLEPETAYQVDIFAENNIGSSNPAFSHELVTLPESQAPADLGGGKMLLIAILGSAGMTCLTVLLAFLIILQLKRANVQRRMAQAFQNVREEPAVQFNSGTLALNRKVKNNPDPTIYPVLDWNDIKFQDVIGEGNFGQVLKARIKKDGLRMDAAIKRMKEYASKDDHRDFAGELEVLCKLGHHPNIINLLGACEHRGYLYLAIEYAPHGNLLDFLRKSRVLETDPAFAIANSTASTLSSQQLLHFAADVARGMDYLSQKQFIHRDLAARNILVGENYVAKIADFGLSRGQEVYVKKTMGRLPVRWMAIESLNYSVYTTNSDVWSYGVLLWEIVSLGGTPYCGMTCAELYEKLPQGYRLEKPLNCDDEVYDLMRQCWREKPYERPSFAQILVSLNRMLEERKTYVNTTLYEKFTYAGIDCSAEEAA
PAK4, sequence (O96013 whole entry): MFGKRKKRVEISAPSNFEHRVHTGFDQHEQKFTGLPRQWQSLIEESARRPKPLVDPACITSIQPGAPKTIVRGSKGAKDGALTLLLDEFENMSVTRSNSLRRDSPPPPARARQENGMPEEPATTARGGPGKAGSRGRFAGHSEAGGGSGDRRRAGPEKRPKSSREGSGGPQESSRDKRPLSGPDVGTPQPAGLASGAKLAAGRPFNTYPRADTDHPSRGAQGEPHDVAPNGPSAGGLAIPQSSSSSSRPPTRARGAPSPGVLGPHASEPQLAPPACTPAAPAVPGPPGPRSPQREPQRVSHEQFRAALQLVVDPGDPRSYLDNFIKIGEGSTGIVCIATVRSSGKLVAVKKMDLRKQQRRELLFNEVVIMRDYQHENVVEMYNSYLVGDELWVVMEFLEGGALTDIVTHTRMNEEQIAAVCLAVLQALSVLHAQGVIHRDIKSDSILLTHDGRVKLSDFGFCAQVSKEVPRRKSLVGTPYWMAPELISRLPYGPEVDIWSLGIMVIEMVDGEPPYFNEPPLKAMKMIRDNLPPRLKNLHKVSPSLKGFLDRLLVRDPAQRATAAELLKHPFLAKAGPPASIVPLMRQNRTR
MLK1, sequence (P80192 whole entry): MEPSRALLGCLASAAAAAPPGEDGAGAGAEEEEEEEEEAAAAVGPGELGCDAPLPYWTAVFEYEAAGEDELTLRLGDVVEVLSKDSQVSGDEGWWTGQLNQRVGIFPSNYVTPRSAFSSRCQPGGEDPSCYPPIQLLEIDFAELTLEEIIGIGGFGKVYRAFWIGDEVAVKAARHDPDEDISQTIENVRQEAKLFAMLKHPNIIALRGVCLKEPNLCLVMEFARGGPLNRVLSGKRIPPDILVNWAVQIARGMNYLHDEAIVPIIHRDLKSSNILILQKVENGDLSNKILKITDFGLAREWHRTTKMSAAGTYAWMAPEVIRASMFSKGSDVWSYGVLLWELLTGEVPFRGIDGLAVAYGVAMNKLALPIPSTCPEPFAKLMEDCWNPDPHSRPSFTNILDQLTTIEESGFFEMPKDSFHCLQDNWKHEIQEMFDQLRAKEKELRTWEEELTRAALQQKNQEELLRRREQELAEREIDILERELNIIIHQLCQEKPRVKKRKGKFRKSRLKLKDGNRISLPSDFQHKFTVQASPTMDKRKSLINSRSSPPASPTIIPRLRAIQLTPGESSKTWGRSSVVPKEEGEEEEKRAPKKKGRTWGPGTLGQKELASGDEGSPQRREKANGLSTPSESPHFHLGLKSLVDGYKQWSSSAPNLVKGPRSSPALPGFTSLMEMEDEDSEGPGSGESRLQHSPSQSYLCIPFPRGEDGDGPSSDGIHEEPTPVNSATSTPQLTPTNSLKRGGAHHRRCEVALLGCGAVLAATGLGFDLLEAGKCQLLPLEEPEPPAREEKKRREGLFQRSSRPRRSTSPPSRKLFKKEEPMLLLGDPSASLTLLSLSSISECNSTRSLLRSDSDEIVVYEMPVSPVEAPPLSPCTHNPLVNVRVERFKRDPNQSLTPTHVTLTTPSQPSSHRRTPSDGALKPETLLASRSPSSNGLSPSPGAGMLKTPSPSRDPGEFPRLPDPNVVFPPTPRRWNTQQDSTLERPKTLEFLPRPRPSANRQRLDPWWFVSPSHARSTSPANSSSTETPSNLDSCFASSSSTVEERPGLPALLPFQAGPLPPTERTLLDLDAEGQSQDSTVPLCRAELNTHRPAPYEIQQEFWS

As for `COc1ccc2sc(-c3cncc(N)c3)nc2c1` [compound 1, 5-(5-Methoxybenzo[d]thiazol-2-yl)pyridin-3-amine], the “Remaining protein kinase activity” value is listed as 113% on SYK (1 μM) and 38% at SYK (100 μM). Further, the remaining activity at 1 µM at TIE2 (TIE2, 1 μM) was determined as 135%; at PAK4 (PAK4, 1 μM) it was 109%; on PINK it was 121%; at MLK1 (MLK1, 1 μM) it was 106%; at EPH-B1 (EPH-B1, 1 μM) it was 122%; at TSSK1 (TSSK1, 1 μM), 107%. In addition, the remaining activity at 100 µM worked out at 85% on TIE2 (TIE2, 100 μM); 54% on PAK4 (PAK4, 100 μM); 114% on PINK; 16% on MLK1 (MLK1, 100 μM); 91% on EPH-B1 (EPH-B1, 100 μM); 70% on TSSK1 (TSSK1, 100 μM).
For the molecule `COc1ccc2sc(-c3cncc(NC(C)=O)c3)nc2c1` [PST-001, N-(5-(5-Methoxybenzo[d]thiazol-2-yl)pyridin-3-yl)acetamide], the “Remaining protein kinase activity” value worked out at 112% on SYK (1 μM) and 58% on SYK (100 μM). Moreover, the remaining activity at 1 µM at TIE2 turned out to be 129%; at PAK4 it was 116%; at PINK, 119%; on MLK1, 108%; at EPH-B1, 117%; on TSSK1 it was 124%. Further, the remaining activity at 100 µM on TIE2 was determined as 133%; on PAK4 it was 98%; on PINK, 118%; on MLK1 it was 96%; on EPH-B1, 108%; at TSSK1, 114%.

The values above are taken from paper PMC8617627, “Novel DYRK1A Inhibitor Rescues Learning and Memory Deficits in a Mouse Model of Down Syndrome” (Pharmaceuticals, 2021).
